# Test results reported in patent US20260248833A1, “PYRIMIDINE NUCLEOSIDE TREATMENTS” (The Children`s Medical Center Corporation, priority 2022, published 2026).
# Tests used:
# Assay type in all cases: biochemical
# telomerase = target: T1, telomerase (Homo sapiens, UniProt O14746); assay: Modified TRAP assay with exogenous dTTP on super-telomerase extracts; details: increasing levels of exogenous dTTP
# T1 construct: expressed in transfected cells; host or cells: TERC-null 293T cells transfected with TERT and TERC expression vectors
# T1 sequence (O14746 whole entry): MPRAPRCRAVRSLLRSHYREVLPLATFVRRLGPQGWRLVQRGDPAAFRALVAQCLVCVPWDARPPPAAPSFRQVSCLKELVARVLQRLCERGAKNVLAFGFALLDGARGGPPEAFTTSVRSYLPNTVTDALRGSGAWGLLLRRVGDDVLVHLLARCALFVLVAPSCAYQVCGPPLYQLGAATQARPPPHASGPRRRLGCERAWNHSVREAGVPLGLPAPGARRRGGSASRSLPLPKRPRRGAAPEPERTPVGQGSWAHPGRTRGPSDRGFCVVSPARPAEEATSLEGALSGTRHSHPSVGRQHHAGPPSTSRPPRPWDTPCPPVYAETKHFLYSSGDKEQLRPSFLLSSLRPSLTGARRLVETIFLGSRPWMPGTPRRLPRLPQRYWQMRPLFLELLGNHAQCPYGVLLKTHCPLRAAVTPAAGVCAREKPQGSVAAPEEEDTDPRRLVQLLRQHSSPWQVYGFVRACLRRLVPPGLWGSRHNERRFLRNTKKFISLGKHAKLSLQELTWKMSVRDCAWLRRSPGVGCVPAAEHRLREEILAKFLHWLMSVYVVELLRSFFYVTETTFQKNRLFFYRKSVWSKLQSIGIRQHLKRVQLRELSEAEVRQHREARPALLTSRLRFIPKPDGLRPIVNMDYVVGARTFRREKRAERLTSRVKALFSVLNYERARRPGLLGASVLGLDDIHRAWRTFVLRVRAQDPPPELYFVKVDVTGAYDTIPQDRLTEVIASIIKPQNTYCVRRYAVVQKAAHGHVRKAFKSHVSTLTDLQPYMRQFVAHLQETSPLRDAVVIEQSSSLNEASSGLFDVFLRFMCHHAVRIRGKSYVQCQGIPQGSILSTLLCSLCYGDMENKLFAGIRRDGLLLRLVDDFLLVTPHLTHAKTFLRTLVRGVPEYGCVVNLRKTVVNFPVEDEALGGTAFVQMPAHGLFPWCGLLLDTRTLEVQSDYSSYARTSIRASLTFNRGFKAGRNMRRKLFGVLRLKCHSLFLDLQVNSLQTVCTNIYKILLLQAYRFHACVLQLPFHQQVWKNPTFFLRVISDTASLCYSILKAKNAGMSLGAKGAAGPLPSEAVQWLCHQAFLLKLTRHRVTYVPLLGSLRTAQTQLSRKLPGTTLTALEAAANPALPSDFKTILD
# T1 sequence (O60832 whole entry partner): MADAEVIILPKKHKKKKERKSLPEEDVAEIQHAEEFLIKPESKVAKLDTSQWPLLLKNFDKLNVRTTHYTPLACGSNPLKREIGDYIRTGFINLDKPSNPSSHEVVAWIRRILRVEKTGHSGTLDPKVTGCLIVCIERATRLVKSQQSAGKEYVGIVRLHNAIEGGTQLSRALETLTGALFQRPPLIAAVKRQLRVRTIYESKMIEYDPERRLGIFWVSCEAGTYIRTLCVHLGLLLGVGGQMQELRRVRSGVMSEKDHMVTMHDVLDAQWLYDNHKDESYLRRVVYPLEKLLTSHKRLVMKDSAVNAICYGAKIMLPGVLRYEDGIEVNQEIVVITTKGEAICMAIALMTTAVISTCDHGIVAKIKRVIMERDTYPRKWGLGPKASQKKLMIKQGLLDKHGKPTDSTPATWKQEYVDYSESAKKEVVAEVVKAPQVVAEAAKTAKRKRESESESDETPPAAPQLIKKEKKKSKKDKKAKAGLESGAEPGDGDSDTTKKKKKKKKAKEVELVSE
# T1 sequence (Q9NPE3 whole entry partner): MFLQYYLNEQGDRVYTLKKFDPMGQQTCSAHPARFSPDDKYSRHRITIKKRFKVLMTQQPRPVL
# T1 sequence (Q9NX24 whole entry partner): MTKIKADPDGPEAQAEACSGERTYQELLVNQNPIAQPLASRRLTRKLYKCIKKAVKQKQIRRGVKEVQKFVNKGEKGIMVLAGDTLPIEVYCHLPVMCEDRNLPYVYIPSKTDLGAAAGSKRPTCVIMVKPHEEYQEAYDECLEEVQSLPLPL
# T1 sequence (Q9NY12 whole entry partner): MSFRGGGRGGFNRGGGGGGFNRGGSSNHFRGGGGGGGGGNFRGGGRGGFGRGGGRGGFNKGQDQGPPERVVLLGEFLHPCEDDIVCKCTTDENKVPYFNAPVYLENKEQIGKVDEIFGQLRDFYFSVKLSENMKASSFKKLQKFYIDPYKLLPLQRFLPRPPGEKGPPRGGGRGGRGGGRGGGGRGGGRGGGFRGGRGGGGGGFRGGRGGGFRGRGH
# Experimental: (§1) TRAP assay: cell extracts for TRAP assays were made using TRAPeze™1×CHAPS Lysis Buffer (Roche) supplemented with RNASEin (Promega). Standard TRAP reactions (in FIG. 25a) were performed as described, with cell input normalized across samples using the Bio-Rad DC assay. TRAP assays were modified to enable unique dNTP concentrations in telomerase reactions from PCR reactions (FIG. 25) as follows: reactions were assembled with 1×TRAP buffer (20 mM Tris-HCl, pH 8.3; 1.5 mM MgCl2; 63 mM KCl; 0.05% Tween 20; 1 mM EGTA), TS, ACX, TNST, and NT primers as described (see Primers/Oligos below), dNTPs were added at physiologic concentrations (dATP 24 μM, dGTP 5.2 μM, dCTP 29 μM, dTTP 37 μM) unless otherwise mentioned in the figure legend, followed by telomerase extracts. TRAP assays were modified to detect GGAAAG repeats using the following primers: TS GGAAAG, TNST GGAAAG, ACX GGAAAG, and NT (see Primers/Oligos below). After addition of telomerase extracts, reactions were incubated for 30 minutes at 30° C. followed by heat inactivation at 95° C. for 5 minutes. […] Images were quantified for a given lane using ImageJ by measuring the signal of the telomerase repeat sized products divided by the signal of the internal control band for the lane, normalized to the same ratio for the untreated sample(s) in a given experiment. […]
# T-free telomerase = target: T2, T-free telomerase (Homo sapiens, UniProt O14746); assay: Modified GGAAAG TRAP assay on T-free super-telomerase extracts; details: increasing dTTP levels
# T2 construct: expressed in transfected cells; host or cells: TERC-null 293T cells transfected with TERT and T-free TERC vectors
# T2 sequence (O14746 whole entry): as the sequence (O14746 whole entry) above
# T2 sequence (O60832 whole entry partner): as the sequence (O60832 whole entry partner) above
# T2 sequence (Q9NPE3 whole entry partner): as the sequence (Q9NPE3 whole entry partner) above
# T2 sequence (Q9NX24 whole entry partner): as the sequence (Q9NX24 whole entry partner) above
# T2 sequence (Q9NY12 whole entry partner): as the sequence (Q9NY12 whole entry partner) above
# Experimental: as §1
# [1] = target: T3, immunopurified T-free telomerase (Homo sapiens, UniProt O14746); assay: Direct telomerase assay on immunopurified T-free telomerase
# T3 construct: made in house; host or cells: TERC-null 293T cells, transient transfection; anti-HA magnetic bead immunopurification, enzyme used on beads
# T3 sequence (O14746 whole entry): as the sequence (O14746 whole entry) above
# T3 sequence (O60832 whole entry partner): as the sequence (O60832 whole entry partner) above
# T3 sequence (Q9NPE3 whole entry partner): as the sequence (Q9NPE3 whole entry partner) above
# T3 sequence (Q9NX24 whole entry partner): as the sequence (Q9NX24 whole entry partner) above
# T3 sequence (Q9NY12 whole entry partner): as the sequence (Q9NY12 whole entry partner) above
# Experimental: Telomerase immunopurification: 293T TERC-null cells were transfected as described above with 3×HA-TERT and TERC/EGFP in 10-cm diameter dishes with reagents scaled up proportional to cell growth area. Two days after transfection, cells were harvested, washed once in PBS, and lysed in TRAPezeTM1×CHAPS Lysis Buffer (Roche) supplemented with RNasin Plus (Promega) and HALT protease inhibitor cocktail (Thermo Fisher), followed by incubation on ice for 30 minutes and precipitation of insoluble material by centrifugation. Immunoprecipitation was performed as described previously with minor modifications. Briefly, 75 μl of anti-HA magnetic beads (Sigma-Aldrich, SAE0197, mouse IgG1 monoclonal antibody, Clone HA-7, 50% beads by volume) were added to clarified lysates followed by 2 hours incubation at 4° C. while rotating. […] Images were quantified using ImageJ as follows. For total telomerase activity measurement (FIG. 25f), telomerase product signal in a lane was quantified and normalized to the loading control band signal within the same lane. […] For the analysis of telomerase repeat intensity (FIG. 25x), the signal of each repeat (defined as the three consecutive intense bands in the laddering pattern, as indicated in FIG. 25d), was quantified and first normalized to the loading control band signal for that lane. […]
smiles,measurement,setting,value
"Cc1cn([C@H]2C[C@H](O)[C@@H](COP(=O)(O)OP(=O)(O)OP(=O)(O)O)O2)c(=O)[nH]c1=O [dTTP, dT triphosphate]",telomerase activity,telomerase,enhanced telomerase activity
same,T-free telomerase activity,T-free telomerase,increased T-free telomerase activity with increasing dTTP levels
same,"T-free telomerase activity, levels higher than without dTTP",[1]; at a concentration of 25 μM dTTP,approximately 50%
same,T-free telomerase activity,"[1]; incorporation of α-32P-dATP, dTTP added",enhanced T-free telomerase activity in a dose-dependent manner
